# From ChEMBL document CHEMBL5150009, “Specific Inhibitor of Placental Alkaline Phosphatase Isolated from a DNA-Encoded Chemical Library Targets Tumor of the Female Reproductive Tract” (J Med Chem, 2021)
# Calls of active or inactive are those of the source. No cut-off for these calls is given here.
# Experiments:
# [1] = system: HeLa; test: Antitumor activity against human HeLa cells xenografted in […] nu/nu mouse assessed as cell accumulation in lung at 2.5 micromol/kg, iv incubated for 1 hr by microscopic analysis; type: functional, organism-based; conditions: dose 2.5 µmol/kg
# [2] = system: SK-OV-3; test: Inhibition of human recombinant PLAP expressed in human SK-OV-3 cells assessed as localization of cell on membrane at 120 nM incubated for 15 mins by Hoechst 33342 staining based laser microscopic analysis
# [3] = system: HeLa; test: Induction of cell death in human HeLa cells incubated for 72 hrs in presence of uniCAR T cells by microscopic analysis; type: functional, cell-based
# [4] = system: HeLa; test: Antitumor activity against human HeLa cells xenografted in […] nu/nu mouse assessed as cell accumulation in spleen at 2.5 micromol/kg, iv incubated for 1 hr by microscopic analysis; type: functional, organism-based; conditions: dose 2.5 µmol/kg
# [5] = system: HeLa; test: Antitumor activity against human HeLa cells xenografted in […] nu/nu mouse assessed as cell accumulation in intestine at 2.5 micromol/kg, iv incubated for 1 hr by microscopic analysis; type: functional, organism-based; conditions: dose 2.5 µmol/kg
# [6] = system: SK-OV-3; test: Inhibition of human recombinant PLAP expressed in human SK-OV-3 cells assessed as fluorescence intensity at 100 nM incubated for 1 hr by FACS based flow cytometry analysis; type: cell-based
# [7] = system: HeLa; test: Antitumor activity against human HeLa cells xenografted in […] nu/nu mouse assessed as cell accumulation in heart at 2.5 micromol/kg, iv incubated for 1 hr by microscopic analysis; type: functional, organism-based; conditions: dose 2.5 µmol/kg
# [8] = system: HeLa; test: Inhibition of human recombinant PLAP expressed in human HeLa cells assessed as fluorescence intensity at 100 nM incubated for 1 hr by FACS analysis; type: cell-based
# [9] = system: HeLa; test: Inhibition of human recombinant PLAP expressed in human HeLa cells assessed as localization of cell on membrane at 120 nM incubated for 15 mins by Hoechst 33342 staining based laser microscopic analysis
# [10] = system: HeLa; test: Antitumor activity against human HeLa cells xenografted in […] nu/nu mouse assessed as cell accumulation in liver at 2.5 micromol/kg, iv incubated for 1 hr by microscopic analysis; type: functional, organism-based; conditions: dose 2.5 µmol/kg
# [11] = system: OVCAR-3; test: Inhibition of human recombinant PLAP expressed in human OVCAR-3 cells assessed as fluorescence intensity at 100 nM incubated for 1 hr by FACS based flow cytometry analysis; type: cell-based
# [12] = Inhibition of human recombinant PLAP using biotinylated CDP as substrate incubated for 30 mins by chemiluminescent assay
# [13] = biological target: T1, Alkaline phosphatase, placental type (Homo sapiens, UniProt P05187); test: Binding affinity to human PLAP incubated for 15 mins by Fluorescence polarization assay
# T1 sequence (P05187 whole entry): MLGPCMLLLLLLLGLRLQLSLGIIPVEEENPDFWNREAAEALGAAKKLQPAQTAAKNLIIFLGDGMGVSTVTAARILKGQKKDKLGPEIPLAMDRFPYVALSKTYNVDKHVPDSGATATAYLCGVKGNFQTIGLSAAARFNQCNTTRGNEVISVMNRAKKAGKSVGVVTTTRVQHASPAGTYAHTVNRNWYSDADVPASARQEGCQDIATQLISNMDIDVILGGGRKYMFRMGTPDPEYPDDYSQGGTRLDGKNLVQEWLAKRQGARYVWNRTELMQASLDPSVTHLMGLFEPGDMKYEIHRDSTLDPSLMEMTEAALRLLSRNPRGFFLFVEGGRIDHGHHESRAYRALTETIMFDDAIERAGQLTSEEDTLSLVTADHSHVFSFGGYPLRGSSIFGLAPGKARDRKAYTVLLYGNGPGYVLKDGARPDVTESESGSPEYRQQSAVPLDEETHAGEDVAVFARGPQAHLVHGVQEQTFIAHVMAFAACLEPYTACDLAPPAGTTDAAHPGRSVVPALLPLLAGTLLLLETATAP
# [14] = biological target: T2, Alkaline phosphatase, tissue-nonspecific isozyme (Homo sapiens) (UniProt P05186); test: Binding affinity to TNAP (unknown origin) incubated for 15 mins by Fluorescence polarization assay
# T2 sequence (whole entry): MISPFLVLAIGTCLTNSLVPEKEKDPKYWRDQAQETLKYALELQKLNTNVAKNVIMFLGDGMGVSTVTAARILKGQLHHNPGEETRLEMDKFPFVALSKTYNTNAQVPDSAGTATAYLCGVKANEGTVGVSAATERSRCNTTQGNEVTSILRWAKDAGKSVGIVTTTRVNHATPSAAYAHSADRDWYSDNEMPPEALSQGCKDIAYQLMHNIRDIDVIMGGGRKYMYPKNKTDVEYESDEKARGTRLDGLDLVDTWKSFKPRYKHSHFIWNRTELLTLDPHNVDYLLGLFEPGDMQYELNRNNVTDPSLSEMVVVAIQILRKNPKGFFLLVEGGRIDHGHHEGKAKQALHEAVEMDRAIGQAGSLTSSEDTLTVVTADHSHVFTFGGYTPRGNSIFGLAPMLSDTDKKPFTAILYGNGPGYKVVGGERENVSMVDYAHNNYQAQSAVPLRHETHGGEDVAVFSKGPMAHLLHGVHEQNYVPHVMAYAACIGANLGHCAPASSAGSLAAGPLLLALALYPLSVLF
# [15] = biological target: T2, Alkaline phosphatase, tissue-nonspecific isozyme (Homo sapiens); test: Inhibition of TNAP (unknown origin) at 20 uM using biotinylated CDP as substrate incubated for 30 mins by chemiluminescent assay
# [16] = biological target: T1, Alkaline phosphatase, placental type; test: Inhibition of human PLAP using biotinylated CDP as substrate incubated for 30 mins by chemiluminescent assay
SMILES,IC50 [12] [µM],Activity [13],other results
COc1c(Cl)cc(-c2cccc(C[C@@H](NC(=O)c3cc(-c4ccc(C)o4)[nH]n3)C(=O)NCCOCCOCCNC(=S)Nc3ccc(-c4c5ccc(=O)cc-5oc5cc(O)ccc45)c(C(=O)O)c3)c2)cc1Cl,–,–,Activity [1]: Active; Activity [2]: Active; Activity [3]: Active; Activity [4]: Active; Activity [5]: Active; Activity [6]: Active; Activity [7]: Active; Activity [8]: Active; Activity [9]: Active; Activity [10]: Active; Activity [11]: Active
Cc1cc(-c2cnccn2)ccc1NC(=O)[C@H](CCC(N)=O)n1cc(CNC(=O)c2ccc3ncn(CC(=O)c4ccc(O)c(O)c4)c3c2)nn1,2.5,Active,–
Cc1cc(NC(=O)[C@H](CCC(=O)NCC(=O)N[C@@H](CCCCN)C(N)=O)NC(=O)CC(C)(C)CC(N)=O)ccc1Br,> 20,–,–
Cc1ccc2c(c1)NC(=O)C2CC(=O)N[C@@H](Cc1ccc(-c2ccc(Cl)cc2C(F)(F)F)cc1)C(=O)O (stereo partly drawn),0.24,Active,–
NC(=O)CC[C@@H](C(=O)Nc1cccc(Oc2ccccc2)c1)n1cc(CNC(=O)c2ccc3ncn(CC(=O)c4ccc(O)c(O)c4)c3c2)nn1,0.84,Active,–
CC(C)(C)OC(=O)n1c(-c2ccccc2C[C@@H](NC(=O)c2cnc3ccccn3c2=O)C(=O)O)cc2c(Cl)cccc21,13,Active,–
Cc1ccc(NC(=O)NCC#Cc2ccc(C[C@@H](NC(=O)c3nn(C)c(C)c3Br)C(=O)O)cc2)cc1,> 20,Active,–
NC(=O)CC[C@H](C(=O)Nc1cccc(Oc2ccccc2)c1)n1cc(CNC(=O)c2ccc3ncn(CC(=O)c4ccc(O)c(O)c4)c3c2)nn1,5,Active,–
Cc1cc(-c2cnccn2)ccc1NC(=O)[C@@H](CCC(N)=O)n1cc(CNC(=O)c2ccc3ncn(CC(=O)c4ccc(O)c(O)c4)c3c2)nn1,2.4,Active,–
CC(C)(C)OC(=O)n1c(-c2ccccc2C[C@H](NC(=O)c2cnc3ccccn3c2=O)C(=O)O)cc2c(Cl)cccc21,4,Active,–
COc1c(Cl)cc(-c2cccc(C[C@H](NC(=O)c3cc(-c4ccc(C)o4)[nH]n3)C(=O)O)c2)cc1Cl,0.13,Active,–
COC(=O)[C@H](Cc1ccc(-c2ccc(Cl)cc2C(F)(F)F)cc1)NC(=O)CC1C(=O)Nc2cc(C)ccc21 (stereo partly drawn),3.9,Active,–
C[C@@H]1CCC[C@H](C)N1CCC(=O)N[C@@H](CCC(=O)N[C@@H](CCC(=O)O)C(=O)N[C@@H](CCCCN)C(N)=O)C(=O)NCCCSCc1ccc(F)cc1,16,Active,–
C[C@@H]1CCC[C@H](C)N1CCC(=O)N[C@@H](CCC(=O)NCC(=O)N[C@@H](CCCCN)C(N)=O)C(=O)NCCCSCc1ccc(F)cc1,> 20,Active,–
Cc1cc(NC(=O)[C@@H](CCC(=O)N[C@@H](CCC(=O)O)C(=O)N[C@@H](CCCCN)C(N)=O)NC(=O)CC(C)(C)CC(N)=O)ccc1Br,> 20,–,–
Cc1ccc(NC(=O)NCC#Cc2ccc(C[C@H](NC(=O)c3nn(C)c(C)c3Br)C(=O)O)cc2)cc1,19,Active,–
COc1c(Cl)cc(-c2cccc(C[C@@H](NC(=O)c3cc(-c4ccc(C)o4)[nH]n3)C(=O)O)c2)cc1Cl,–,Active,Activity [14]: Active; inhibition [15]: Active; IC50 [16]: 32 nM
